According to patent publication US7192722B2, “Phenethanolamine-derived haptens, immunogens, antibodies and conjugates” (Randox Laboratories, priority 2004, dated 2007):
Values after ≈ are worked out from the molar mass of the structure shown. Values joined by “and” are separate entries in the source; they are usually repeats but may differ in a detail not shown here. Identical values can stand only once.

What was measured:
[1] = test system: IgG fraction of the antiserum raised to immunogen A (hapten A-BSA); test: Competitive ELISA for ractopamine, Example 22 a): antiserum to immunogen A, conjugate A (hapten A-HRP); type: binding, sheep; conditions: for % CR: cross-reactivity relative to ractopamine = 100%
Experimental: (§1) An aqueous solution of each immunogen was formulated with Freund's Complete Adjuvant (FCA) to form an emulsion consisting of 2 mg/ml immunogen in 50% (v/v) FCA. Three sheep were immunised with this emulsion (1° immunisation), 0.25 ml being subcutaneously injected at each of four sites in the flank of each animal. Subsequent immunizations (boosts) contained 1 mg/ml immunogen. All boosts were emulsified in 50% (v/v) Freund's Incomplete Adjuvant (FIA) and were administered in the same manner as the 1° immunisation, at monthly intervals for 1 year. Blood sampling took place 7 to 14 days after each boost. Each sample was processed to produce antiserum, which was further purified by caprylic acid and ammonium sulfate precipitation to yield an immunoglobulin G (IgG) fraction.
The appropriate antibody coating dilution was determined using standard ELISA checkerboard techniques. The plate was incubated for 2 hours at 37° C., washed 4 times with Tris buffered saline containing Tween 20 (TBST) and tapped dry. Standard solutions of ractopamine were prepared in TBST at 0, 0.05, 0.1, 0.5, 1, and 5 ng/ml, and 50 μl of each was added to the appropriate wells. […] The appropriate dilution of conjugate was also determined using standard ELISA checkerboard techniques. The plate was incubated at 37° C. for 2 hours. Excess unbound conjugate was removed by washing 6 times over a 10 minute period with TBST. 125 μl of tetramethylbenzidine (TMB) substrate solution was added to each well of the plate that was then incubated for 15 to 20 minutes in the dark at room temperature. The reaction was terminated by addition of 125 μl 0.2M H2SO4 to each well. The absorbance was then measured at 450 nm using a microtiter plate reader.
(§2) Employing each series of standards in the ractopamine competitive ELISAs, calibration curves were generated and these were used to determine the cross-reactivity of each immunoassay with these substances.

[2] = test system: IgG fraction of the antiserum raised to immunogen C (hapten C-BSA); test: Competitive ELISA for ractopamine, Example 22 b): antiserum to immunogen C, conjugate C (hapten C-HRP); type: binding, sheep; conditions: for % CR: cross-reactivity relative to ractopamine = 100%
Experimental: as §1
The same definitions apply for A450, B, B0 and IC50.
as §2

[3] = test system: Shelver polyclonal antiserum (ractopamine-hemiglutarate-KLH); conditions: Shelver pAb, cited from earlier work; for % CR: relative to ractopamine = 100%
[4] = test system: Shelver monoclonal antibody (5G10); conditions: Shelver mAb, cited from earlier work; for % CR: relative to ractopamine = 100%
[5] = test system: IgG fraction of the antiserum raised to immunogen D (hapten D-BSA); test: Competitive ELISA for isoxsuprine, Example 24: antiserum to immunogen D, conjugate D (hapten D-HRP); type: binding; conditions: for % CR: cross-reactivity relative to isoxsuprine = 100%
[6] = test system: IgG fraction of the antiserum raised to immunogen E (hapten E-BSA); test: Competitive ELISA for ritodrine, Example 25: antiserum to immunogen E, conjugate E (hapten E-HRP); type: binding; conditions: for % CR: cross-reactivity relative to ritodrine = 100%
[7] = test system: Haasnoot antibody derived from a fenoterol derivative; conditions: cited from earlier work

| Compound | % CR [1] [%] | % CR [2] [%] | IC50 CR [3] | % CR [3] [%] | IC50 CR [4] | % CR [4] [%] | further results |
| --- | --- | --- | --- | --- | --- | --- | --- |
| CC(C)NCC(O)c1ccc(N)c(C#N)c1 (stereo not drawn) [Cimaterol] | <0.16 | <0.01 |  |  |  |  |  |
| CC(C)(C)NCC(O)c1cc(O)cc(O)c1 (stereo not drawn) [Terbutaline] | <0.16 | <0.01 |  |  |  |  |  |
| CC(C)(C)NCC(O)c1ccc(O)c(CO)n1 (stereo not drawn) [Pirbuterol] | <0.16 | <0.05 |  |  |  |  |  |
| CC(C)NCC(O)c1ccc(O)c(O)c1 (racemic) [DL-Isoproterenol] | <0.16 | <0.5 | >100,000 ng/ml | <0.01 |  |  |  |
| Methyl Clenbuterol | <0.16 | <0.05 |  |  |  |  |  |
| OCc1cc(C(O)CNCCCCCCOCCCCc2ccccc2)ccc1O (stereo not drawn) [Salmeterol Xinafoate] | <0.16 | <0.5 | 1,800 ng/ml | 0.2 | 1519 ng/mL (≈ 3.66 µM) | 0.2 |  |
| CC(C)NCC(O)c1cc(O)cc(O)c1 (stereo not drawn) [Metaproterenol] | <0.16 | <0.01 | >100,000 ng/ml | <0.01 |  |  |  |
| CC(C)(C)NCC(O)c1cc(Cl)c(N)c(Cl)c1 (stereo not drawn) [Clenbuterol] | <0.16 | <0.01 | >100,000 ng/ml | <0.01 |  | <0.1 |  |
| CC(C)(C)NCC(O)c1ccccc1Cl (stereo not drawn) [Tulobuterol] | <0.16 | <0.05 |  |  |  |  |  |
| CC(C)(C)NCC(O)c1cc(Cl)c(N)c(C(F)(F)F)c1 (stereo not drawn) [Mabuterol] | <0.16 | <0.01 |  |  |  |  |  |
| CC(CCc1ccc(O)cc1)NCCc1ccc(O)c(O)c1 (stereo not drawn) [Dobutamine] | 0.186 | <0.8 | 12.7 ng/mL (≈ 0.0421 µM) | 33 | 50.3 ng/mL (≈ 0.167 µM) | 5.3 | % CR ([1]; listed as dobutamine): 0.186% and < 0.8%; % CR ([2]; listed as dobutamine): < 0.8%; % CR [5]: <0.1%; % CR [6]: <5.0% |
| CC(C)NC[C@H](O)c1ccc(O)c(O)c1 [(−) Isoproterenol] | <0.16 | <0.01 |  |  |  |  |  |
| CC(COc1ccccc1)NC(C)C(O)c1ccc(O)cc1 (stereo not drawn) [Isoxsuprine] | <0.16 | <0.6 | 6,200 ng/ml | 0.1 | 1,391 ng/ml | 0.2 | % CR [5]: 100%; % B/B0 ([5]; isoxsuprine 0.5 ng/ml): 31.6%; % B/B0 ([5]; isoxsuprine 1 ng/ml): 17.0%; % B/B0 ([5]; isoxsuprine 5 ng/ml): 6.7%; % B/B0 ([5]; isoxsuprine 10 ng/ml): 4.9%; % B/B0 ([5]; isoxsuprine 50 ng/ml): 1.5%; % B/B0 ([5]; isoxsuprine 100 ng/ml): 1.3%; % B/B0 ([5]; isoxsuprine 200 ng/ml): 0.9%; % CR [6]: 20.2% |
| CC(Cc1ccc(O)cc1)NCC(O)c1cc(O)cc(O)c1 (stereo not drawn) [Fenoterol] | <0.16 | <0.05 | 310 ng/mL (≈ 1.02 µM) | 1.3 | 2,682 ng/ml | 0.1 |  |
| NCCc1ccc(O)c(O)c1 [Dopamine] | <0.16 | <0.01 |  |  |  |  |  |
| CCCCNCC(O)c1ccc(O)cc1 (stereo not drawn) [Bamethane] | <0.16 | <0.01 | 2,900 ng/ml | 0.1 | 831 ng/mL (≈ 3.97 µM) | 0.3 |  |
| CC(NCCc1ccc(O)cc1)C(O)c1ccc(O)cc1 (stereo not drawn) [Ritodrine] | <0.16 | <0.5 | 577 ng/mL (≈ 2.01 µM) | 0.8 | 73.8 ng/mL (≈ 0.257 µM) | 3.6 | % CR [5]: <0.1%; % CR [6]: 100%; % B/B0 ([6]; ritodrine 1 ng/ml): 92.0%; % B/B0 ([6]; ritodrine 5 ng/ml): 82.3%; % B/B0 ([6]; ritodrine 10 ng/ml): 80.2%; % B/B0 ([6]; ritodrine 50 ng/ml): 64.7%; % B/B0 ([6]; ritodrine 100 ng/ml): 55.9%; % B/B0 ([6]; ritodrine 500 ng/ml): 30.0%; % B/B0 ([6]; ritodrine 1000 ng/ml): 22.6% |
| CC(C)(C)NCC(O)c1ccc(O)c(CO)c1 (stereo not drawn) [Salbutamol] | <0.16 | <0.01 | 79,000 ng/ml | <0.01 |  | <0.1 |  |
| CC(CCc1ccc(O)cc1)NCC(O)c1ccc(O)cc1 (stereo not drawn) [Ractopamine] | 100 | 100 | 4.2 ng/mL (≈ 0.0139 µM) | 100 | 2.69 ng/mL (≈ 0.00893 µM) | 100 | % B/B0 ([1]; ractopamine 0.05 ng/ml): 53.5%; % B/B0 ([1]; ractopamine 0.1 ng/ml): 49.5%; % B/B0 ([1]; ractopamine 0.5 ng/ml): 23.7%; % B/B0 ([1]; ractopamine 1 ng/ml): 16.9%; % B/B0 ([1]; ractopamine 5 ng/ml): 6.33%; % B/B0 ([2]; ractopamine 0.025 ng/ml): 84%; % B/B0 ([2]; ractopamine 0.1 ng/ml): 65%; % B/B0 ([2]; ractopamine 0.25 ng/ml): 46%; % B/B0 ([2]; ractopamine 0.5 ng/ml): 34%; % B/B0 ([2]; ractopamine 1 ng/ml): 24%; % CR [5]: <0.1%; % CR [6]: <0.5%; cross-reactivity [7]: 20% |
